The subject of test [1] is ESR1 transcription in MVLN cells. Put plainly: MVLN reporter assay: repression of ESR1 transcription (luciferase signal). The test is classed as cell-based. The settings on record: Homo sapiens, MVLN, 24 h, luciferase signal after 24 h, read-out: MVLN reporter assay, IC50 [M] (arithmetic mean). From the text: KAT6A controls transcription of the ESR1 gene in breast cancer cells. Compound treatment that interferes with this mechanism was quantified using MVLN cells. These cells constitutively express the ER and are stably transfected with the luciferase (LUC) reporter gene and the corresponding hormone responsive element derived from the 5′-flanking region of the Xenopus Vitellogenin A2 gene (Pons et al., 1990, Demirpense et al., 1993, Joyeux et al., 1993). The repressive effect on ERα transcription activity of a test chemical is directly related to the luciferase measured in the lysate of treated MVLN cells. […] Each sample was prepared as duplicate and rim wells were excluded. For luciferase signal determination 100 μl of a 1:1 mixture of Steadylite plus (Perkin Elmer; 6016759) and assay medium was added after 24 h for 15 minutes and measured in Victor X3 (Perkin Elmer). To exclude any effects caused by cell loss during the treatment, cell density was determined using Alamar Blue (Invitrogen; DAL1100). Prior to the luciferase measurement 10 μl Alamar Blue were added to each well and the plates were incubated for 2 h in the incubator. Then fluorescence was measured with Victor X3 (Perkin Elmer) at 530 nm/590 nm.

For test [2], the target named is T1, Recombinant human His-tagged Kat6a protein (amino acids 194-810) (Homo sapiens, UniProt Q92794).
T1 construct: Kat6a protein (amino acids 194-810); His
Put plainly: Kat6a activity assay (TR-FRET, acetylation of Histone-H4-derived peptide). To be noted: 60 mins at 22° C., 220 nM H4 peptide, 600 nM Acetyl Coenzyme A, read-out: KAT6A - DPF/HAT domain IC50 [mol/l] (arithmetic mean). It counts as biochemical. As to the method: Kat6a inhibitory activities of the compounds described in the present invention were quantified using a Fluorescence Resonance Energy Transfer (TR-FRET) assay which measures acetylation of a synthetic, biotinylated Histone-H4-derived peptide by the enzyme.
In this case 50 nl DMSO were used instead of compounds. […] IC50 values were determined by regression analysis based on a 4 parameter equation (minimum, maximum, ICM, Hill; Y=Max+(Min−Max)/(1+(X/ICso) Hill) using the Screener Software (Genedata).

The values that follow come from US20240279207A1, “SUBSTITUTED ACYL SULFONAMIDES FOR TREATING CANCER” (The Broad Institute, Inc., priority 2020, published 2024).

T1 sequence (Q92794 194-810): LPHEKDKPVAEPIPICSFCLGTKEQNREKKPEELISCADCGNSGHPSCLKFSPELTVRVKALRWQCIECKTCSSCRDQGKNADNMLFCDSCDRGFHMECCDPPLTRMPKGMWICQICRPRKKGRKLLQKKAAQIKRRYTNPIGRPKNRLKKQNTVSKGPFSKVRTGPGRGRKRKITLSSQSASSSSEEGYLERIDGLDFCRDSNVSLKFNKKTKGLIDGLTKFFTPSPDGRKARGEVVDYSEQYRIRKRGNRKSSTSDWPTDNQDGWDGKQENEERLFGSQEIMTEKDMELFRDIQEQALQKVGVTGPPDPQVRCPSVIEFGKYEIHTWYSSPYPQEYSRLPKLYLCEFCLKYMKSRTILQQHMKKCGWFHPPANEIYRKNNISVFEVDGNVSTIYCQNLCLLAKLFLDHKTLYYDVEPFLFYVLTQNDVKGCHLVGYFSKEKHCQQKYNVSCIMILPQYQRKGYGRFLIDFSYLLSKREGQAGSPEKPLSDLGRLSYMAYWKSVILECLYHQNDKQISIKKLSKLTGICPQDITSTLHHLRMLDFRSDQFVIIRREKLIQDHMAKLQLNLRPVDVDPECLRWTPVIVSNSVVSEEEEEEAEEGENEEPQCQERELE

Take `COCc1cccc(S(=O)(=O)NC(=O)c2cc3c(F)cc(N4CCC4)cc3o2)c1` [Example 48, 6-(Azetidin-1-yl)-4-fluoro-N-[3-(methoxymethyl)benzene-1-sulfonyl]-1-benzofuran-2-carboxamide]: the IC50 in test [1] was determined as 1.29e-06 M; in test [2], 281 nM.
The matching figures for `CC(C)Nc1ccc(Cl)cc1S(=O)(=O)NC(=O)c1cc2c(F)cc(N3CCC3)cc2o1` [Example 49, 6-(Azetidin-1-yl)-N-{5-chloro-2-[(propan-2-yl)amino]benzene-1-sulfonyl}-4-fluoro-1-benzofuran-2-carboxamide]: 1.41e-06 M and 67.3 nM.
The matching figures for `O=C(NS(=O)(=O)c1c(F)cccc1NC1CC1)c1cc2c(F)cc(N3CCC3)cc2o1` [Example 50, 6-(Azetidin-1-yl)-N-[2-(cyclopropylamino)-6-fluorobenzene-1-sulfonyl]-4-fluoro-1-benzofuran-2-carboxamide]: 1.42e-06 M and 98.7 nM.
For `CN(C)C(=O)c1ccccc1S(=O)(=O)NC(=O)c1cc2c(F)cc(N3CCC3)cc2o1` [Example 51, 6-(Azetidin-1-yl)-N-[2-(dimethylcarbamoyl)benzene-1-sulfonyl]-4-fluoro-1-benzofuran-2-carboxamide] the same measures were 1.51e-06 M and 189 nM.
For the compound `O=C(NS(=O)(=O)c1ccccc1CCC(F)(F)F)c1cc2c(F)cc(N3CCC3)cc2o1` [Example 52, 6-(Azetidin-1-yl)-4-fluoro-N-[2-(3,3,3-trifluoropropyl)benzene-1-sulfonyl]-1-benzofuran-2-carboxamide], the figures for the IC50 in test [1] and in test [2] were 1.55e-06 M and 101 nM, respectively.
For `Cc1cccc(C(C)C)c1S(=O)(=O)NC(=O)c1cc2c(F)cc(N3CCC3)cc2o1` [Example 53, 6-(Azetidin-1-yl)-4-fluoro-N-[2-methyl-6-(propan-2-yl)benzene-1-sulfonyl]-1-benzofuran-2-carboxamide] the same measures were 1.58e-06 M and 698 nM.
For the compound `CCOCc1ccc(Cl)c(S(=O)(=O)NC(=O)c2cc3c(F)cc(N4CCC4)cc3o2)c1` [Example 54, 6-(Azetidin-1-yl)-N-[2-chloro-5-(ethoxymethyl)benzene-1-sulfonyl]-4-fluoro-1-benzofuran-2-carboxamide], the IC50 in test [1] came to 1.72e-06 M; in test [2], 135 nM.
Regarding `O=C(NS(=O)(=O)c1ccccc1/C=C/C(F)(F)F)c1cc2c(F)cc(N3CCC3)cc2o1` [Example 55, 6-(Azetidin-1-yl)-4-fluoro-N-{2-[(1E)-3,3,3-trifluoroprop-1-en-1-yl]benzene-1-sulfonyl}-1-benzofuran-2-carboxamide], the IC50 came out at 1.69e-06 M in test [1] and 106 nM in test [2].
For `O=C(NS(=O)(=O)c1cccc2nccnc12)c1cc2c(F)cc(N3CCC3)cc2o1` [Example 56, 6-(Azetidin-1-yl)-4-fluoro-N-(quinoxaline-5-sulfonyl)-1-benzofuran-2-carboxamide] the same measures were 2.11e-06 M and 122 nM.
For `COC(=O)Cc1ccc2c(S(=O)(=O)NC(=O)c3cc4c(F)cc(N5CCC5)cc4o3)cccc2c1` [Example 57, Methyl (5-{[6-(azetidin-1-yl)-4-fluoro-1-benzofuran-2-carbonyl]sulfamoyl}naphthalen-2-yl)acetate] the same measures were 2.5e-06 M and 120 nM.
For `CCCc1cccc(C(F)(F)F)c1S(=O)(=O)NC(=O)c1cc2c(F)cc(N3CCC3)cc2o1` [Example 58, 6-(Azetidin-1-yl)-4-fluoro-N-[2-propyl-6-(trifluoromethyl)benzene-1-sulfonyl]-1-benzofuran-2-carboxamide] the same measures were 3.87e-06 M and 315 nM.
As for `COCCOc1ccc(Cl)c(S(=O)(=O)NC(=O)c2cc3c(F)cc(N4CCC4)cc3o2)c1` [Example 59, 6-(Azetidin-1-yl)-N-[2-chloro-5-(2-methoxyethoxy)benzene-1-sulfonyl]-4-fluoro-1-benzofuran-2-carboxamide], the IC50 in test [1] was 4.29e-06 M; in test [2], 208 nM.
The matching figures for `Cc1cnc(Cl)c(S(=O)(=O)NC(=O)c2cc3c(F)cc(N4CCC4)cc3o2)c1` [Example 60, 6-(Azetidin-1-yl)-N-(2-chloro-5-methylpyridine-3-sulfonyl)-4-fluoro-1-benzofuran-2-carboxamide]: 5.29e-06 M and 476 nM.
The matching figures for `Cc1cccc(C2CCCC2)c1S(=O)(=O)NC(=O)c1cc2c(F)cc(N3CCC3)cc2o1` [Example 61, 6-(Azetidin-1-yl)-N-(2-cyclopentyl-6-methylbenzene-1-sulfonyl)-4-fluoro-1-benzofuran-2-carboxamide]: 5.6e-06 M and 399 nM.
Regarding `O=C(NS(=O)(=O)c1cc(CO)ccc1OC(F)(F)F)c1cc2c(F)cc(N3CCC3)cc2o1` [Example 63, 6-(Azetidin-1-yl)-4-fluoro-N-[5-(hydroxymethyl)-2-(trifluoromethoxy)benzene-1-sulfonyl]-1-benzofuran-2-carboxamide], the IC50 turned out to be 6.48e-06 M in test [1] and 131 nM in test [2].
For the compound `Cc1cccc(O)c1S(=O)(=O)NC(=O)c1cc2c(F)cc(N3CCC3)cc2o1` [Example 64, 6-(Azetidin-1-yl)-4-fluoro-N-(2-hydroxy-6-methylbenzene-1-sulfonyl)-1-benzofuran-2-carboxamide], the figures for the IC50 in test [1] and in test [2] were 8e-06 M and 85.1 nM, respectively.
The matching figures for `COc1cccc2c(S(=O)(=O)NC(=O)c3cc4c(F)cc(N5CCC5)cc4o3)cccc12` [Example 65, 6-(Azetidin-1-yl)-4-fluoro-N-(5-methoxynaphthalene-1-sulfonyl)-1-benzofuran-2-carboxamide]: 8.32e-06 M and 57.1 nM.
For `CN(C)c1cccc2c(S(=O)(=O)NC(=O)c3cc4c(F)cc(N5CCC5)cc4o3)cccc12` [Example 66, 6-(Azetidin-1-yl)-N-[5-(dimethylamino)naphthalene-1-sulfonyl]-4-fluoro-1-benzofuran-2-carboxamide] the same measures were 1e-05 M and 135 nM.
Turning to `COc1cccnc1S(=O)(=O)NC(=O)c1cc2c(F)cc(N3CCC3)cc2o1` [Example 67, 6-(Azetidin-1-yl)-4-fluoro-N-(3-methoxypyridine-2-sulfonyl)-1-benzofuran-2-carboxamide], the IC50 in test [1] is 1.1e-05 M; in test [2] it was 345 nM.
The matching figures for `N#CCCc1ccc(S(=O)(=O)NC(=O)c2cc3c(F)cc(N4CCC4)cc3o2)cc1` [Example 68, 6-(Azetidin-1-yl)-N-[4-(2-cyanoethyl)benzene-1-sulfonyl]-4-fluoro-1-benzofuran-2-carboxamide]: 1.26e-05 M and 652 nM.
In the case of `O=C(NS(=O)(=O)c1ncccc1Br)c1cc2c(F)cc(N3CCC3)cc2o1` [Example 69, 6-(Azetidin-1-yl)-N-(3-bromopyridine-2-sulfonyl)-4-fluoro-1-benzofuran-2-carboxamide], the results for the IC50 in test [1] and in test [2] were 1.56e-05 M and 325 nM, respectively.
As to `Cc1cc(Nc2ccccc2S(=O)(=O)NC(=O)c2cc3c(F)cc(N4CCC4)cc3o2)n(-c2ccccc2)n1` [Example 70, 6-(Azetidin-1-yl)-4-fluoro-N-{2-[(3-methyl-1-phenyl-1H-pyrazol-5-yl)amino]benzene-1-sulfonyl}-1-benzofuran-2-carboxamide], the IC50 in test [1] came out at 1.58e-05 M; in test [2], 494 nM.
